This assay deals with C57BL/6J mice. Briefly: oral glucose tolerance test (OGTT). The assay is classed as in vivo. The settings on record: 2 g/kg D-glucose oral. The method, then: The anti-diabetic effect of the wild ginseng CMCs prepared in Example 2 was examined by an oral glucose tolerance test OGTT. Wild ginseng CMCs were heat-treated at 95° C. for 48 hours, and an extract obtained by extracting the CMCs with 70% ethanol was administered orally. C57BL/6J mice (8-week-old, male) were fasted overnight. The weights and blood glucose levels of the C57BL/6J mice were measured, and then 2 g/kg of D-glucose was administered orally to the mice. At this time, the mice were fed with drinking water, but were not fed with feed. A change in the blood glucose level was measured at […] for 2 hours.
The […] was compared with resistant maltodextrin (RMD) and a red ginseng extract (RG-200), which are known as health supplements in the anti-diabetic field.

As to Resistant maltodextrin [RMD], the Blood glucose level runs as follows: (Time 0, 2 g/kg-treated diabetic group) 169 mg/dL; (Time 30, 2 g/kg-treated diabetic group) 485 mg/dL; (Time 60, 2 g/kg-treated diabetic group) 350 mg/dL; (Time 120, 2 g/kg-treated diabetic group) 282 mg/dL.

The values are drawn from patent publication US10646528B2, “Method for preparing extract of genus Panax including wild ginseng or ginseng, or cambial meristematic cells derived from genus panax or extract thereof containing rare ginsenosides in high quantity” (WELLKEY HOLDINGS LIMITED, priority 2014, dated 2020).
